Laboratory results from ChEMBL document CHEMBL3045610, “Pyridoquinolones containing azetidinones: synthesis and their biological evaluation” (2012).
In brackets after ≈: the same amount, converted by molar mass.

What was measured:
Format in all cases: functional
Aspergillus clavatus = assay: Antifungal activity against Aspergillus clavatus by broth dilution method
Escherichia coli = assay: Antibacterial activity against Escherichia coli by broth dilution method
[1] = test system: Mycobacterium tuberculosis; assay: Antimicrobial activity against Mycobacterium tuberculosis H37Rv by broth dilution method
Candida albicans = assay: Antifungal activity against Candida albicans by broth dilution method
Pseudomonas aeruginosa = assay: Antibacterial activity against Pseudomonas aeruginosa by broth dilution method
Aspergillus niger = assay: Antifungal activity against Aspergillus niger by broth dilution method
Staphylococcus aureus = assay: Antibacterial activity against Staphylococcus aureus by broth dilution method
Streptococcus pyogenes = assay: Antibacterial activity against Streptococcus pyogenes by broth dilution method

Row | Compound | MIC (Aspergillus clavatus) | MIC (Escherichia coli) | MIC [1] | MIC (Candida albicans) | MIC (Pseudomonas aeruginosa) | MIC (Aspergillus niger) | MIC (Staphylococcus aureus) | MIC (Streptococcus pyogenes)
1 | Cc1cc(Cl)nc2ccc3c(=O)c(C(=O)NN4C(=O)C(Cl)C4c4ccc(Cl)cc4)c[nH]c3c12 (configuration not stated) | 500 µg/mL (≈ 996 µM) | 100 µg/mL (≈ 199 µM) | 100 µg/mL (≈ 199 µM) | 200 µg/mL (≈ 399 µM) | 100 µg/mL (≈ 199 µM) | 500 µg/mL (≈ 996 µM) | 500 µg/mL (≈ 996 µM) | 500 µg/mL (≈ 996 µM)
2 | COC1=CC(=O)C[C@@H](C)[C@]12Oc1c(Cl)c(OC)cc(OC)c1C2=O [GRISEOFULVIN] | 100 µg/mL (≈ 283 µM) | – | – | 500 µg/mL (≈ 1420 µM) | – | 100 µg/mL (≈ 283 µM) | – | –
3 | Cc1cc(Cl)nc2ccc3c(=O)c(C(=O)NN4C(=O)C(Cl)C4c4ccccc4Cl)c[nH]c3c12 (configuration not stated) | 250 µg/mL (≈ 498 µM) | 200 µg/mL (≈ 399 µM) | – | 100 µg/mL (≈ 199 µM) | 250 µg/mL (≈ 498 µM) | 250 µg/mL (≈ 498 µM) | 200 µg/mL (≈ 399 µM) | 200 µg/mL (≈ 399 µM)
4 | Cc1cc(Cl)nc2ccc3c(=O)c(C(=O)N/N=C/c4cccc([N+](=O)[O-])c4O)c[nH]c3c12 | 500 µg/mL (≈ 1110 µM) | 150 µg/mL (≈ 332 µM) | 62.5 µg/mL (≈ 138 µM) | 200 µg/mL (≈ 443 µM) | 200 µg/mL (≈ 443 µM) | 500 µg/mL (≈ 1110 µM) | 500 µg/mL (≈ 1110 µM) | 500 µg/mL (≈ 1110 µM)
5 | Cc1cc(Cl)nc2ccc3c(=O)c(C(=O)N/N=C/c4ccc(Cl)cc4)c[nH]c3c12 | 250 µg/mL (≈ 588 µM) | 500 µg/mL (≈ 1180 µM) | – | 500 µg/mL (≈ 1180 µM) | 1000 µg/mL (≈ 2350 µM) | 250 µg/mL (≈ 588 µM) | 250 µg/mL (≈ 588 µM) | 250 µg/mL (≈ 588 µM)
6 | NNC(=O)c1ccncc1 [ISONIAZID] | – | – | 0.2 µg/mL (≈ 1.46 µM) | – | – | – | – | –
7 | Cc1ccc(C2C(Cl)C(=O)N2NC(=O)c2c[nH]c3c(ccc4nc(Cl)cc(C)c43)c2=O)cc1 (configuration not stated) | > 1000 µg/mL | 250 µg/mL (≈ 519 µM) | – | 200 µg/mL (≈ 416 µM) | 250 µg/mL (≈ 519 µM) | > 1000 µg/mL | 250 µg/mL (≈ 519 µM) | 250 µg/mL (≈ 519 µM)
8 | Cc1cc(Cl)nc2ccc3c(=O)c(C(=O)N/N=C/c4cc([N+](=O)[O-])ccc4O)c[nH]c3c12 | 1000 µg/mL (≈ 2210 µM) | 62.5 µg/mL (≈ 138 µM) | 500 µg/mL (≈ 1110 µM) | 200 µg/mL (≈ 443 µM) | 100 µg/mL (≈ 221 µM) | 1000 µg/mL (≈ 2210 µM) | 200 µg/mL (≈ 443 µM) | 250 µg/mL (≈ 553 µM)
9 | Cc1ccc(/C=N/NC(=O)c2c[nH]c3c(ccc4nc(Cl)cc(C)c43)c2=O)cc1 | 500 µg/mL (≈ 1240 µM) | 200 µg/mL (≈ 494 µM) | – | 250 µg/mL (≈ 618 µM) | 250 µg/mL (≈ 618 µM) | 500 µg/mL (≈ 1240 µM) | 250 µg/mL (≈ 618 µM) | 250 µg/mL (≈ 618 µM)
10 | NYSTATIN | 100 µg/mL | – | – | 100 µg/mL | – | 100 µg/mL | – | –
11 | CCOC(=O)c1c[nH]c2c(ccc3nc(Cl)cc(C)c32)c1=O | 1000 µg/mL (≈ 3160 µM) | 250 µg/mL (≈ 789 µM) | 500 µg/mL (≈ 1580 µM) | 200 µg/mL (≈ 631 µM) | 250 µg/mL (≈ 789 µM) | 1000 µg/mL (≈ 3160 µM) | 150 µg/mL (≈ 474 µM) | 100 µg/mL (≈ 316 µM)
12 | Cc1cc(Cl)nc2ccc3c(=O)c(C(=O)N/N=C/c4ccccc4)c[nH]c3c12 | > 1000 µg/mL | 250 µg/mL (≈ 640 µM) | – | 250 µg/mL (≈ 640 µM) | 250 µg/mL (≈ 640 µM) | > 1000 µg/mL | 200 µg/mL (≈ 512 µM) | 250 µg/mL (≈ 640 µM)
13 | CCn1cc(C(=O)O)c(=O)c2cc(F)c(N3CCNCC3)cc21 [NORFLOXACIN] | – | 10 µg/mL (≈ 31.3 µM) | – | – | 10 µg/mL (≈ 31.3 µM) | – | 10 µg/mL (≈ 31.3 µM) | 10 µg/mL (≈ 31.3 µM)
14 | COc1cc(C2C(Cl)C(=O)N2NC(=O)c2c[nH]c3c(ccc4nc(Cl)cc(C)c43)c2=O)ccc1O (configuration not stated) | 500 µg/mL (≈ 974 µM) | 250 µg/mL (≈ 487 µM) | – | 1000 µg/mL (≈ 1950 µM) | 500 µg/mL (≈ 974 µM) | 500 µg/mL (≈ 974 µM) | 1000 µg/mL (≈ 1950 µM) | 1000 µg/mL (≈ 1950 µM)
15 | Cc1cc(Cl)nc2ccc3c(=O)c(C(=O)N/N=C/c4ccccc4Cl)c[nH]c3c12 | > 1000 µg/mL | 500 µg/mL (≈ 1180 µM) | – | 250 µg/mL (≈ 588 µM) | 500 µg/mL (≈ 1180 µM) | 500 µg/mL (≈ 1180 µM) | 100 µg/mL (≈ 235 µM) | 200 µg/mL (≈ 470 µM)
16 | COc1ccc(/C=N/NC(=O)c2c[nH]c3c(ccc4nc(Cl)cc(C)c43)c2=O)cc1 | 500 µg/mL (≈ 1190 µM) | 250 µg/mL (≈ 594 µM) | – | 500 µg/mL (≈ 1190 µM) | 500 µg/mL (≈ 1190 µM) | 500 µg/mL (≈ 1190 µM) | 500 µg/mL (≈ 1190 µM) | 500 µg/mL (≈ 1190 µM)
17 | Cc1cc(Cl)nc2ccc3c(=O)c(C(=O)N/N=C/c4ccccc4O)c[nH]c3c12 | 500 µg/mL (≈ 1230 µM) | 250 µg/mL (≈ 615 µM) | 200 µg/mL (≈ 492 µM) | 100 µg/mL (≈ 246 µM) | 250 µg/mL (≈ 615 µM) | 500 µg/mL (≈ 1230 µM) | 100 µg/mL (≈ 246 µM) | 200 µg/mL (≈ 492 µM)
18 | Cc1cc(Cl)nc2ccc3c(=O)c(C(=O)NN4C(=O)C(Cl)C4c4ccccc4)c[nH]c3c12 (configuration not stated) | > 1000 µg/mL | 100 µg/mL (≈ 214 µM) | 250 µg/mL (≈ 535 µM) | 500 µg/mL (≈ 1070 µM) | 250 µg/mL (≈ 535 µM) | > 1000 µg/mL | 250 µg/mL (≈ 535 µM) | 250 µg/mL (≈ 535 µM)
19 | O=C(O)c1cn(C2CC2)c2cc(N3CCNCC3)c(F)cc2c1=O [CIPROFLOXACIN] | – | 25 µg/mL (≈ 75.4 µM) | – | – | – | – | 50 µg/mL (≈ 151 µM) | 50 µg/mL (≈ 151 µM)
20 | Cc1cc(Cl)nc2ccc3c(=O)c(C(=O)NN4C(=O)C(Cl)C4c4cccc([N+](=O)[O-])c4O)c[nH]c3c12 (configuration not stated) | > 1000 µg/mL | 62.5 µg/mL (≈ 118 µM) | 200 µg/mL (≈ 379 µM) | 500 µg/mL (≈ 946 µM) | 200 µg/mL (≈ 379 µM) | > 1000 µg/mL | 500 µg/mL (≈ 946 µM) | 500 µg/mL (≈ 946 µM)
21 | COc1ccccc1/C=N/NC(=O)c1c[nH]c2c(ccc3nc(Cl)cc(C)c32)c1=O | 1000 µg/mL (≈ 2380 µM) | 100 µg/mL (≈ 238 µM) | 250 µg/mL (≈ 594 µM) | 500 µg/mL (≈ 1190 µM) | 250 µg/mL (≈ 594 µM) | 1000 µg/mL (≈ 2380 µM) | 250 µg/mL (≈ 594 µM) | 250 µg/mL (≈ 594 µM)
22 | COc1cc(/C=N/NC(=O)c2c[nH]c3c(ccc4nc(Cl)cc(C)c43)c2=O)ccc1O | 1000 µg/mL (≈ 2290 µM) | 500 µg/mL (≈ 1140 µM) | 500 µg/mL (≈ 1140 µM) | 250 µg/mL (≈ 572 µM) | 500 µg/mL (≈ 1140 µM) | 1000 µg/mL (≈ 2290 µM) | 100 µg/mL (≈ 229 µM) | 200 µg/mL (≈ 458 µM)
23 | Cc1cc(Cl)nc2ccc3c(=O)c(C(=O)NN)c[nH]c3c12 | > 1000 µg/mL | 100 µg/mL (≈ 330 µM) | 200 µg/mL (≈ 661 µM) | 500 µg/mL (≈ 1650 µM) | 200 µg/mL (≈ 661 µM) | > 1000 µg/mL | 250 µg/mL (≈ 826 µM) | 200 µg/mL (≈ 661 µM)
24 | COc1ccccc1C1C(Cl)C(=O)N1NC(=O)c1c[nH]c2c(ccc3nc(Cl)cc(C)c32)c1=O (configuration not stated) | > 1000 µg/mL | 500 µg/mL (≈ 1010 µM) | – | 250 µg/mL (≈ 503 µM) | 1000 µg/mL (≈ 2010 µM) | > 1000 µg/mL | 250 µg/mL (≈ 503 µM) | 500 µg/mL (≈ 1010 µM)
25 | Cc1cc(Cl)nc2ccc3c(=O)c(C(=O)NN4C(=O)C(Cl)C4c4ccccc4O)c[nH]c3c12 (configuration not stated) | 1000 µg/mL (≈ 2070 µM) | 100 µg/mL (≈ 207 µM) | 500 µg/mL (≈ 1030 µM) | 500 µg/mL (≈ 1030 µM) | 200 µg/mL (≈ 414 µM) | 1000 µg/mL (≈ 2070 µM) | 500 µg/mL (≈ 1030 µM) | 500 µg/mL (≈ 1030 µM)
26 | O=C(N[C@H](CO)[C@H](O)c1ccc([N+](=O)[O-])cc1)C(Cl)Cl [CHLORAMPHENICOL] | – | 50 µg/mL (≈ 155 µM) | – | – | 50 µg/mL (≈ 155 µM) | – | 50 µg/mL (≈ 155 µM) | 50 µg/mL (≈ 155 µM)
27 | COc1ccc(C2C(Cl)C(=O)N2NC(=O)c2c[nH]c3c(ccc4nc(Cl)cc(C)c43)c2=O)cc1 (configuration not stated) | > 1000 µg/mL | 250 µg/mL (≈ 503 µM) | – | 500 µg/mL (≈ 1010 µM) | 250 µg/mL (≈ 503 µM) | > 1000 µg/mL | 500 µg/mL (≈ 1010 µM) | 500 µg/mL (≈ 1010 µM)
28 | Cc1cc(Cl)nc2ccc3c(=O)c(C(=O)NN4C(=O)C(Cl)C4c4cc([N+](=O)[O-])ccc4O)c[nH]c3c12 (configuration not stated) | 500 µg/mL (≈ 946 µM) | 250 µg/mL (≈ 473 µM) | – | 250 µg/mL (≈ 473 µM) | 500 µg/mL (≈ 946 µM) | 500 µg/mL (≈ 946 µM) | 500 µg/mL (≈ 946 µM) | 500 µg/mL (≈ 946 µM)
29 | CC1(C)S[C@@H]2[C@H](NC(=O)[C@H](N)c3ccccc3)C(=O)N2[C@H]1C(=O)O [AMPICILLIN] | – | 100 µg/mL (≈ 286 µM) | – | – | 100 µg/mL (≈ 286 µM) | – | 250 µg/mL (≈ 715 µM) | 100 µg/mL (≈ 286 µM)
